{
  "source": "paper PMC5349447",
  "about": "“Applying a high-throughput fluorescence polarization assay for the discovery of chemical probes blocking La:RNA interactions in vitro and in cells” (PLoS ONE, 2017)",
  "key": {"SCC 22B cells [1]": {"system": "SCC 22B cells", "assay": "Cell toxicity, CyQUANT cell number, SCC 22B", "assay_type": "cell-based, human", "settings": "for effect on SCC 22B cell numbers: 48 h, 12.5-150 μM", "experimental": "(§1) Normal fibroblast MRC5 and human embryonic kidney HEK293 cells were purchased from ATCC. Head and neck squamous cell carcinoma cell lines UM-SCC 22A (SCC 22A) and UM-SCC 22B (SCC 22B) were described elsewhere. MRC5 cells were cultured in EMEM plus 10% FBS; SCC 22A, SCC 22B, and HEK293 cells were cultured in advanced DMEM (Gibco) containing 2 mM L-glutamine (Life Technology) and 10% FBS. All cell lines were tested for mycoplasma contamination by applying a MycoSensor PCR Assay kit according to the manufacturer’s instructions (Agilent Technologies).\n(§2) To test for cell toxicity the compounds were dissolved in 100% DMSO to a concentration of 100 mM. Subsequently, compounds were diluted in media to 10 mM (10% DMSO), 1 mM (1% DMSO) and tested at 150, 125, 100, 75, 50, 25 μM in SCC 22B and MRC5 cells. To reach this concentration compounds (stock 1 mM, 1% DMSO) were diluted in the cell culture dish (96-well format, 100 μl final volume) as follows: 150 μM = 6.7 fold (final DMSO: 0.15%); 125 μM = 8.0 fold (final DMSO: 0.125%); 100 μM = 10 fold (final DMSO: 0.1%); 75 μM = 13.3 fold (final DMSO: 0.075%); 50 μM = 20 fold (final DMSO: 0.05%); and 25 μM = 40 fold (final DMSO: 0.025%). As a control the highest DMSO concentration of 0.15% was used. Cells were cultured in appropriate media (see above) for 48h. Subsequently, cells were washed twice with 1x PBS and quantified after staining with fluorescence dye (CyQUANT®, Life Technologies). For this experiments 3x10^4 of MRC5 and 1x10^4 SCC 22B cells were plate the day before the experiment."}, "La-WT:fD1-RNA complex": {"system": "T1, La-WT:fD1-RNA complex", "T1 construct": "His; made in house; host or cells: E. coli BL21", "assay": "EMSA, compound competition, La-WT:fD1", "assay_type": "binding, human", "settings": "La-WT 60 nM, fD1 50 nM", "experimental": "12% native TBE polyacrylamide gels were prepared in a Mini-PROTEAN Tetra Handcast System (BioRad). The gel was pre-run for 30 min at 140 V in 1x TBE buffer (45 mM Tris/HCl pH 8.5, 45 mM boric acid, 1 mM EDTA). To prepare the RNA-mix, fluorescence labeled RNA oligoribonucleotides (oligos) were diluted in fluorescence polarization buffer (20 mM Tris/HCl (pH 7.4), 150 mM NaCl, 3.0 mM MgCl2, 0.5 mM EDTA, 0.05% (v/v) IGEPAL), mixed for 10 min at 80°C, and then immediately placed on ice for at least 5 min. All RNA oligos were used at a final concentration of 50 nM. Recombinant La protein was diluted in D-buffer (20 mM Tris/ HCl (pH 7.4), 150mM NaCl, 3mM MgCl2, 0.5mM EDTA, 5% glycerol) and placed on ice until use.\nLa titration was performed at final concentrations of 20, 40, 60, 100, 200, 300, 400, 500, 600 nM La. Three different La concentrations were used for compound studies: 60 nM for fD1 RNA, 200 nM for fPolyU RNA, and 150 nM for TOPf RNA studies. Two μl of diluted compound (diluted in 100% DMSO) or 2 μl 100% DMSO (control reaction) was combined with 8 μl La-mix in a 96-well plate. 10 μl RNA-mix was added, mixed for 2 min, and incubated for 10 min at RT in the dark. Final concentrations in the reaction: 18 mM Tris/HCl (pH 7.4), 135 mM NaCl, 2.7 mM MgCl2, 0.45 mM EDTA, 0.025% (v/v) IGEPAL, 2% glycerol, 10% DMSO). Samples were loaded onto the pre-run gel without any loading buffer. Gels were run at 160 V for 40 min in the dark. The gels were carefully transferred to a clear plastic wrap and scanned using a Typhoon FLA900 imager. The La-RNA complex (La-RNP) formation was quantified using the ImageQuant TL software.\nNext we used our established EMSA to test whether compound C2 and C6 can compete against the three RNA oligos: fD1, fPolyU, and TOPf. All of the EMSA reactions were loaded in the following order: lane 1 contains the RNA oligo alone; lane 2 contains the RNA oligo plus La protein at concentration that shifts 50% of the RNA oligo (positive control); lanes 3–9 contain the RNA oligo, La protein and decreasing concentrations of the compound; and lane 10 contains the RNA oligo and the highest compound concentration (negative control)."}, "MRC5 cells": {"system": "MRC5 cells", "assay": "Cell toxicity, CyQUANT cell number, MRC5", "assay_type": "cell-based, human", "settings": "48 h, up to 150 μM", "experimental": "as §1, §2"}, "SCC 22A cells": {"system": "SCC 22A cells", "parameters": "method as in PMID 27105491", "settings": "used as treatment concentration, read-out: cisplatin IC50; cited from earlier work"}, "SCC 22B cells [2]": {"system": "SCC 22B cells", "assay": "Cisplatin sensitization, CyQUANT, SCC 22B", "assay_type": "cell-based, human", "settings": "SCC 22B", "experimental": "To test whether compound C2.01 sensitizes cells for cisplatin, cells were treated with 0.2% DMSO alone, cisplatin at 4, 8, 16, 32 or 64 μM concentration alone or in combination with 50 μM compound C2.01. The half maximal inhibitory concentration (IC50) of cisplatin was determined by treating SCC 22B cells with increasing cisplatin (Selleckchem) concentrations or vehicle (DMSO) for 48 h (96-well format) as described recently. For this experiments 1x10^4 SCC 22B cells were plated the day before the experiment. DMSO or C2.01 was added to a final concentration of DMSO (0.05%) and C2.01 (50 μM). Six hours later the different cisplatin concentrations were added. The highest DMSO concentration of 0.25% was used in the control for cisplatin and C2.01 double treatment. Subsequently, cells were washed twice with 1x PBS and quantified after staining with fluorescence dye (CyQUANT®, Life Technologies) 48 after the initial C2.01 treatment."}, "La-RRM1+2": {"molecular_target": "T2, La-RRM1+2 (human, UniProt P05455 111-348)", "T2 sequence": "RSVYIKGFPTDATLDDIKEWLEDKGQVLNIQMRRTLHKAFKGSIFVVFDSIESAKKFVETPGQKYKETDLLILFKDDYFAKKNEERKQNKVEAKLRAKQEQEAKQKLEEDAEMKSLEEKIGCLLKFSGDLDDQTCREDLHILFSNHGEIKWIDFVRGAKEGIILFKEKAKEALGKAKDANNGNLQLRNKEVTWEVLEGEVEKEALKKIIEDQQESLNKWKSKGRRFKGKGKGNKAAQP", "assay": "EMSA; EMSA: about 20 mM Tris-HCl pH 7.4, 150 mM NaCl, 3 mM MgCl2, 0.5 mM EDTA, IGEPAL, glycerol, 50 nM RNA, RT 10 min (with compounds: 18 mM Tris, 135 mM NaCl, 2.7 mM MgCl2, 0.45 mM EDTA, 0.025% IGEPAL, 2% glycerol, 10% DMSO); FP: 20 mM Tris-HCl pH 7.5, 3 mM MgCl2, 0.5 mM EDTA, 150 mM NaCl, 0.05% IGEPAL, 100 ug/ml BGG, RT 15 min", "settings": "protein: recombinant, tags: His"}, "[3]": {"molecular_target": "T3, La-WT (La autoantigen, LARP3) (human, UniProt P05455 1-408)", "T3 sequence": "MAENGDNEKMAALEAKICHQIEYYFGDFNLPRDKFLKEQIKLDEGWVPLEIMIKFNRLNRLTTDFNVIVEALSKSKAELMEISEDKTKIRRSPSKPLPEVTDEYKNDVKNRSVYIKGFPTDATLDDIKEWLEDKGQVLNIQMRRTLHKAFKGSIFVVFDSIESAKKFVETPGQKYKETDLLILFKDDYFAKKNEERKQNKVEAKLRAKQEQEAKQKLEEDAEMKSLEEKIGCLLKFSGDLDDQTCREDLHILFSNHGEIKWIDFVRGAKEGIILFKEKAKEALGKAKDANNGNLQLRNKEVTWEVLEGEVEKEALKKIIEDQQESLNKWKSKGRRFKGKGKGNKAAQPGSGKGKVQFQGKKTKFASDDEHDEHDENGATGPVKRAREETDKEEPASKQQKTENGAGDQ", "assay": "EMSA; EMSA: about 20 mM Tris-HCl pH 7.4, 150 mM NaCl, 3 mM MgCl2, 0.5 mM EDTA, IGEPAL, glycerol, 50 nM RNA, RT 10 min (with compounds: 18 mM Tris, 135 mM NaCl, 2.7 mM MgCl2, 0.45 mM EDTA, 0.025% IGEPAL, 2% glycerol, 10% DMSO); FP: 20 mM Tris-HCl pH 7.5, 3 mM MgCl2, 0.5 mM EDTA, 150 mM NaCl, 0.05% IGEPAL, 100 ug/ml BGG, RT 15 min", "settings": "protein: recombinant, tags: His"}, "[4]": {"molecular_target": "T3, La-WT (La autoantigen, LARP3)", "assay": "competition; EMSA vs TOPf; EMSA: about 20 mM Tris-HCl pH 7.4, 150 mM NaCl, 3 mM MgCl2, 0.5 mM EDTA, IGEPAL, glycerol, 50 nM RNA, RT 10 min (with compounds: 18 mM Tris, 135 mM NaCl, 2.7 mM MgCl2, 0.45 mM EDTA, 0.025% IGEPAL, 2% glycerol, 10% DMSO); FP: 20 mM Tris-HCl pH 7.5, 3 mM MgCl2, 0.5 mM EDTA, 150 mM NaCl, 0.05% IGEPAL, 100 ug/ml BGG, RT 15 min", "settings": "protein: recombinant; tags: His; label: none"}},
  "data": [
    {"molecule": "CCCCOC(=O)c1ccc2c(c1)C1C=CCC1C(C(=O)O)N2", "note": "(centres unmarked) [C6.02, 8-(butoxycarbonyl)-3a,4,5,9b-tetrahydro-3H-cyclopenta[c]quinoline-4-carboxylic acid]", "values": [
      {"measurement": "effect on SCC 22B cell numbers", "setting": "SCC 22B cells [1]", "result": "reduced SCC 22B cell numbers even at low concentrations"},
      {"measurement": "competition for La:fD1 interaction (EMSA), in words", "setting": "La-WT:fD1-RNA complex", "result": "slightly lower concentrations than C6.00"},
      {"measurement": "toxic effect on MRC5 cells (normal fibroblasts)", "setting": "MRC5 cells", "result": "toxic effect"}
    ]},
    {"molecule": "N.N.[Cl][Pt][Cl]", "note": "[cisplatin]", "values": [
      {"measurement": "IC50", "setting": "SCC 22A cells", "result": 12000, "unit": "nM"},
      {"measurement": "IC50", "setting": "SCC 22B cells [2]; pretreatment with 50 μM C2.01, 48 hours", "result": 18000, "unit": "nM"},
      {"measurement": "IC50", "setting": "SCC 22B cells [2]; vehicle (DMSO) pretreatment, 48 hours", "result": 32000, "unit": "nM"}
    ]},
    {"molecule": "O=C(O)c1ccccc1C(=O)c1ccc2ccccc2c1O", "note": "[C2.02, 2-(1-hydroxy-2-naphthoyl)benzoic acid]", "values": [
      {"measurement": "effect on SCC 22B cell numbers", "setting": "SCC 22B cells [1]", "result": "no effect"},
      {"measurement": "competition for La:fD1 interaction (EMSA), in words", "setting": "La-WT:fD1-RNA complex", "result": "lower concentration"},
      {"measurement": "toxic effect on MRC5 cells (normal fibroblasts)", "setting": "MRC5 cells", "result": "toxic effect"}
    ]},
    {"molecule": "CC(C)COC(=O)c1ccc2c(c1)C1C=CCC1C(C(=O)O)N2", "note": "(centres unmarked) [C6.01, 8-(isobutoxycarbonyl)-3a,4,5,9b-tetrahydro-3H-cyclopenta[c]quinoline-4-carboxylic acid]", "values": [
      {"measurement": "effect on SCC 22B cell numbers", "setting": "SCC 22B cells [1]", "result": "reduced SCC 22B cell numbers even at low concentrations"},
      {"measurement": "selectivity: cancer cell numbers compared to effect on normal MRC5 cells", "setting": "SCC 22B cells [1]; SCC 22B versus MRC5, 48 h", "result": "preferentially reduced cancer cell numbers"},
      {"measurement": "competition for La:fD1 interaction (EMSA), in words", "setting": "La-WT:fD1-RNA complex", "result": "slightly lower concentrations than C6.00"},
      {"measurement": "toxic effect on MRC5 cells (normal fibroblasts)", "setting": "MRC5 cells", "result": "toxic effect"}
    ]},
    {"molecule": "GCUGCCCAGGAAGAGCCCCAGCCAUGGAACACCAGCUCCUGUGCUGC (structured_RNA)", "note": "[fD1]", "values": [
      {"measurement": "Kd", "setting": "La-RRM1+2; hairpin (mfold prediction)", "result": "81.7 ± 12.6", "unit": "nM"},
      {"measurement": "Kd", "setting": "[3]; hairpin (mfold prediction)", "result": "85 ± 7.5", "unit": "nM"}
    ]},
    {"molecule": "CCCUUUUCCCACCCCCUAGCGCCGCUGGGCCU (structured_RNA)", "note": "[TOPf]", "values": [
      {"measurement": "Kd", "setting": "[3]; mfold predicted structure", "result": "147 ± 35.1", "unit": "nM"}
    ]},
    {"molecule": "CCCUUUUCCCACCCCCUAGCGCCGCUGGGCCU (structured_RNA, 5' m7G cap)", "note": "[capTOPf]", "values": [
      {"measurement": "Kd", "setting": "[3]", "result": "183 ± 15.3", "unit": "nM"}
    ]},
    {"molecule": "GGCCCUUUUCCCACCCCCUAGCGCCGCUGGGCCU (ssRNA)", "note": "[TOP-mu2]", "values": [
      {"measurement": "binding result", "setting": "[4]", "result": "binds"}
    ]},
    {"molecule": "UGCUGUUUU (ssRNA)", "note": "[fPolyU]", "values": [
      {"measurement": "binding result", "setting": "La-RRM1+2; no structure predicted", "result": "no binding"},
      {"measurement": "Kd", "setting": "[3]; no structure predicted", "result": "138 ± 12.6", "unit": "nM"}
    ]}
  ]
}
